Among the data in patent US8669271B2 (Boehringer Ingelheim International GmbH, priority 2010, dated 2014) are EC50 values, retold here.

The structures appear in SMILES notation.

Usually EC50 stands for the concentration at which the effect is half-maximal.

For the assay, the target named is T1, human GPR119 (Homo sapiens, UniProt Q8TDV5).
T1 construct: expression vector for human GPR119 cDNA (Acc. No. NP_848566); expressed in transfected cells
T1 sequence (Q8TDV5 1-335): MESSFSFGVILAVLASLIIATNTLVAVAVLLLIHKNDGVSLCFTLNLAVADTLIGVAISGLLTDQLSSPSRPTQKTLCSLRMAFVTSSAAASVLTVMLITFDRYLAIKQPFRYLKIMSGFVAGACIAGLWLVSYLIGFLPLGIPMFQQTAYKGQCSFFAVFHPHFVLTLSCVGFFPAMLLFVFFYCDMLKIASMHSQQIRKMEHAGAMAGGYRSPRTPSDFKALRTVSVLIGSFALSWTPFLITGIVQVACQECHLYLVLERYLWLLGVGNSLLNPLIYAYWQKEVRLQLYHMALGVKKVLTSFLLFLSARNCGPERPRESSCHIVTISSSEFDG
The assay is described as follows: AlphaScreen cAMP assay in Min-6/hGPR119 cells (activation of GPR119, intracellular cAMP). In kind it is cell-based. The conditions noted are these: MIN6 cells stably transfected with human GPR119; cAMP by AlphaScreen after 45 minutes incubation at room temperature. As for the experimental part:
The compounds of formula I according to the invention modulate the activity of the G-protein-coupled receptor GPR119. The effect of the compounds on the activation of GPR119 and on the stimulation of intracellular cAMP concentration is determined using the AlphaScreen cAMP Assay Kit (Cat.No.#6760625R) made by PerkinElmer.
MIN6 cells [Miyazaki J et al. Endocrinology. 1990 July; 127(1):126-32] are stably transfected with an expression vector for human GPR119 cDNA (Acc. No. NP_848566). Min-6/hGPR119 cells are cultured in DMEM, 10% FBS, 50 μM β-mercaptoethanol, 0.3 mg/mL Geniticin, 2 mM GlutaMAX at 37° C. 5% CO2. For the assay, the cells are seeded in Optiplates (white, 384-well, 160W— barcoded, TC, sterile with lid, Cat.No.#6007688 (Perkin Elmer); 10000 cells/well; 50 μl). The plates covered with lids are then incubated for 24 hours at 37° C./5% CO2. After the medium is aspirated from the wells completely, 10 μl of the test compound are added, the compounds are diluted using stimulating buffer (140 mM NaCl, 3.6 mM KCl, 0.5 mM NaH2PO4, 0.5 mM MgSO4, 1.5 mM CaCl2, 10 mM Hepes, 5 mM NaHCO3; pH 7.4. 0.5 mM IBMX and 0.1% BSA, the final DMSO concentration is 1%). After 45 minutes incubation at room temperature (approx. 20° C.), the cAMP concentrations are determined using the AlphaScreen cAMP Assay Kit (Cat.No.#6760625R from PerkinElmer).
With `CC(C)(C)OC(=O)N1CCC(C2Cc3cc(-c4ccc(C#N)cc4F)ncc3O2)CC1` (stereo not drawn) [Example 29, 4-[5-(4-Cyano-2-fluoro-phenyl)-2,3-dihydro-furo[2,3-c]pyridin-2-yl]-piperidine-1-carboxylic acid tert-butyl ester], the midpoint of the response, the EC50, lay at 12 nM.
For `CC(C)(C)OC(=O)N1CCC(C2Cc3cc(-c4ccc(S(N)(=O)=O)cc4)ncc3O2)CC1` (stereo not drawn) [Example 30, 4-[5-(4-Sulfamoyl-phenyl)-2,3-dihydro-furo[2,3-c]pyridin-2-yl]-piperidine-1-carboxylic acid tert-butyl ester], the EC50 turned out to be 84 nM.
As for `CC(C)(C)OC(=O)N1CCC(C2Cc3cc(-c4ccc(CC#N)cc4)ncc3O2)CC1` (stereo not drawn) [Example 31, 4-[5-(4-Cyanomethyl-phenyl)-2,3-dihydro-furo[2,3-c]pyridin-2-yl]-piperidine-1-carboxylic acid tert-butyl ester], the figure is 39 nM; as for `CCNC(=O)c1ccc(-c2cc3c(cn2)OC(C2CCN(C(=O)OC(C)(C)C)CC2)C3)cc1` (stereo not drawn) [Example 32, 4-[5-(4-Ethylcarbamoyl-phenyl)-2,3-dihydro-furo[2,3-c]pyridin-2-yl]-piperidine-1-carboxylic acid tert-butyl ester], 21 nM; as for `CC(C)(C)OC(=O)N1CCC(C2Cc3cc(-c4cncnc4)ncc3O2)CC1` (stereo not drawn) [Example 33, 4-(5-Pyrimidin-5-yl-2,3-dihydro-furo[2,3-c]pyridin-2-yl)-piperidine-1-carboxylic acid tert-butyl ester], 190 nM.
In turn, `CC(C)(C)OC(=O)N1CCC(C2Cc3cc(-c4ccc(S(C)(=O)=O)c(F)c4)ncc3O2)CC1` (stereo not drawn) [Example 34, 4-[5-(3-Fluoro-4-methanesulfonyl-phenyl)-2,3-dihydro-furo[2,3-c]pyridin-2-yl]-piperidine-1-carboxylic acid tert-butyl ester] returned an EC50 of 9 nM.
In turn, `CC(C)(C)OC(=O)N1CCC(C2Cc3cc(-c4ccc(CS(C)(=O)=O)cc4F)ncc3O2)CC1` (stereo not drawn) [Example 35, 4-[5-(2-Fluoro-4-methanesulfonylmethyl-phenyl)-2,3-dihydro-furo[2,3-c]pyridin-2-yl]-piperidine-1-carboxylic acid tert-butyl ester] yielded an EC50 of 17 nM.
In turn, `CNS(=O)(=O)c1ccc(-c2cc3c(cn2)OC(C2CCN(C(=O)OC(C)(C)C)CC2)C3)cc1` (stereo not drawn) [Example 36, 4-[5-(4-Methylsulfamoyl-phenyl)-2,3-dihydro-furo[2,3-c]pyridin-2-yl]-piperidine-1-carboxylic acid tert-butyl ester] registered an EC50 of 33 nM.
`CC(C)(C)OC(=O)N1CCC(C2Cc3cc(-c4ccc(NS(C)(=O)=O)cc4)ncc3O2)CC1` (stereo not drawn) [Example 37, 4-[5-(4-Methanesulfonylamino-phenyl)-2,3-dihydro-furo[2,3-c]pyridin-2-yl]-piperidine-1-carboxylic acid tert-butyl ester] had an EC50 of 31 nM.
For the molecule `Cc1noc(C)c1-c1cc2c(cn1)OC(C1CCN(C(=O)OC(C)(C)C)CC1)C2` (stereo not drawn) [Example 38, 4-[5-(3,5-Dimethyl-isoxazol-4-yl)-2,3-dihydro-furo[2,3-c]pyridin-2-yl]-piperidine-1-carboxylic acid tert-butyl ester], the EC50 amounted to 573 nM.
Regarding `CC(C)(C)OC(=O)N1CCC(C2Cc3cc(-c4cnco4)ncc3O2)CC1` (stereo not drawn) [Example 39, 4-(5-Oxazol-5-yl-2,3-dihydro-furo[2,3-c]pyridin-2-yl)-piperidine-1-carboxylic acid tert-butyl ester], the EC50 stood at 152 nM.
`CC(C)(C)OC(=O)N1CCC(C2Cc3cc(-c4ccc(C(N)=O)cn4)ccc3O2)CC1` (stereo not drawn) [Example 40, 4-[5-(5-Carbamoyl-pyridin-2-yl)-2,3-dihydro-benzofuran-2-yl]-piperidine-1-carboxylic acid tert-butyl ester] displayed an EC50 of 158 nM.
The molecule `CC(C)(C)OC(=O)N1CCC(C2Cc3cc(-c4ccncc4)ncc3O2)CC1` (stereo not drawn) [Example 41, 4-(5-Pyridin-4-yl-2,3-dihydro-furo[2,3-c]pyridin-2-yl)-piperidine-1-carboxylic acid tert-butyl ester] gave an EC50 of 34 nM.
Consider `CNC(=O)c1ccc(-c2ccc3c(c2)CC(C2CCN(C(=O)OC(C)(C)C)CC2)O3)nc1` (stereo not drawn) [Example 42, 4-[5-(5-Methylcarbamoyl-pyridin-2-yl)-2,3-dihydro-benzofuran-2-yl]-piperidine-1-carboxylic acid tert-butyl ester], for which the EC50 is 64 nM.
Then `CC(C)(C)OC(=O)N1CCC(C2Cc3cc(-c4ccncc4C#N)ccc3O2)CC1` (stereo not drawn) [Example 43, 4-[5-(3-Cyano-pyridin-4-yl)-2,3-dihydro-benzofuran-2-yl]-piperidine-1-carboxylic acid tert-butyl ester], with 269 nM; and `CC(C)(C)OC(=O)N1CCC(C2Cc3cc(-c4ccc(C#N)nc4)ncc3O2)CC1` (stereo not drawn) [Example 44, 4-[5-(6-Cyano-pyridin-3-yl)-2,3-dihydro-furo[2,3-c]pyridin-2-yl]-piperidine-1-carboxylic acid tert-butyl ester], with 30 nM.
`CC(C)(C)OC(=O)N1CCC(C2Cc3cc(-c4cccnc4)ncc3O2)CC1` (stereo not drawn) [Example 45, 4-(5-Pyridin-3-yl-2,3-dihydro-furo[2,3-c]pyridin-2-yl)-piperidine-1-carboxylic acid tert-butyl ester] displayed an EC50 of 410 nM.
Molecule `CC(C)(C)OC(=O)N1CCC(C2Cc3cc(-c4ccc(C#N)cc4)ncc3O2)CC1` (stereo not drawn) [Example 46, 4-[5-(4-Cyano-phenyl)-2,3-dihydro-furo[2,3-c]pyridin-2-yl]-piperidine-1-carboxylic acid tert-butyl ester] yielded an EC50 of 15 nM.
As for `CC(C)(C)OC(=O)N1CCC(C2Cc3cc(-c4ccnc(F)c4)ncc3O2)CC1` (stereo not drawn) [Example 47, 4-[5-(2-Fluoro-pyridin-4-yl)-2,3-dihydro-furo[2,3-c]pyridin-2-yl]-piperidine-1-carboxylic acid tert-butyl ester], the EC50 is 8 nM.
As for `CC(C)(C)OC(=O)N1CCC(C2Cc3cc(-c4ccc(CS(C)(=O)=O)cn4)ccc3O2)CC1` (stereo not drawn) [Example 48, 4-[5-(5-Methanesulfonylmethyl-pyridin-2-yl)-2,3-dihydro-benzofuran-2-yl]-piperidine-1-carboxylic acid tert-butyl ester], the EC50 was 53 nM.
`CC(C)(C)OC(=O)N1CCC(C2Cc3cc(-c4ccc(CS(C)(=O)=O)cc4)ncc3O2)CC1` (stereo not drawn) [Example 49, 4-[5-(4-Methanesulfonylmethyl-phenyl)-2,3-dihydro-furo[2,3-c]pyridin-2-yl]-piperidine-1-carboxylic acid tert-butyl ester] gave an EC50 of 22 nM.
Molecule `CC(C)(C)OC(=O)N1CCC(C2Cc3cc(-c4ccnnc4)ccc3O2)CC1` (stereo not drawn) [Example 50, 4-(5-Pyridazin-4-yl-2,3-dihydro-benzofuran-2-yl)-piperidine-1-carboxylic acid tert-butyl ester] displayed an EC50 of 161 nM.
Molecule `CC(C)(C)OC(=O)N1CCC(C2Cc3cc(-c4ccncc4F)ncc3O2)CC1` (stereo not drawn) [Example 51, 4-[5-(3-Fluoro-pyridin-4-yl)-2,3-dihydro-furo[2,3-c]pyridin-2-yl]-piperidine-1-carboxylic acid tert-butyl ester] displayed an EC50 of 10 nM.
`Cc1cc(-c2cc3c(cn2)OC(C2CCN(C(=O)OC(C)(C)C)CC2)C3)ccn1` (stereo not drawn) [Example 52, 4-[5-(2-Methyl-pyridin-4-yl)-2,3-dihydro-furo[2,3-c]pyridin-2-yl]-piperidine-1-carboxylic acid tert-butyl ester] had an EC50 of 49 nM.
`COc1cc(-c2cc3c(cn2)OC(C2CCN(C(=O)OC(C)(C)C)CC2)C3)ccn1` (stereo not drawn) [Example 53, 4-[5-(2-Methoxy-pyridin-4-yl)-2,3-dihydro-furo[2,3-c]pyridin-2-yl]-piperidine-1-carboxylic acid tert-butyl ester] showed an EC50 of 122 nM.
As for `CC(C)(C)OC(=O)N1CCC(C2Cc3cc(-c4ccnnc4)ncc3O2)CC1` (stereo not drawn) [Example 54, 4-(5-Pyridazin-4-yl-2,3-dihydro-furo[2,3-c]pyridin-2-yl)-piperidine-1-carboxylic acid tert-butyl ester], a half-maximal response (EC50) required 265 nM.
Consider `CC(C)(C)OC(=O)N1CCC(C2Cc3cc(-c4ccnc(C#N)c4)ncc3O2)CC1` (stereo not drawn) [Example 55, 4-[5-(2-Cyano-pyridin-4-yl)-2,3-dihydro-furo[2,3-c]pyridin-2-yl]-piperidine-1-carboxylic acid tert-butyl ester], for which it took 16 nM to reach a half-maximal effect (EC50).
